Test results: BigSolDB 2.1

CC1(C)CCC2=C(O1)c1ccccc1C(=O)C2=O
solubility (mole fraction)
Settings	298.15 K	303.15 K	308.15 K	313.15 K	318.15 K
in acetone	0.0205	0.0216	0.0245	0.0296	0.0342
in acetonitrile	0.018	0.0209	0.0227	0.0269	0.0325
in ethanol	0.00499	0.00595	0.00664	0.00909	0.0134
in ethyl acetate	0.00853	0.00936	0.0104	0.0121	0.0165
in isopropanol	0.00376	0.00432	0.00528	0.00754	0.0111
in methanol	0.0054	0.00654	0.0076	0.0101	0.0153
in n-butanol	0.00743	0.00895	0.0108	0.0142	0.0203
in n-propanol	0.00669	0.00793	0.00969	0.0146	0.0203
in propylene glycol	0.00306	0.00308	0.0037	0.00531	0.00724
in sec-butanol	0.00565	0.00671	0.0079	0.0104	0.0162
in water	2.85e-06	3.72e-06	4.46e-06	5.26e-06	6.12e-06
